The NIST ThermoML archive (doi:10.1021/je100707s)
“And” between values parts separate entries of the source, which are not always exact repeats. Equal entries are not always repeated.

Conditions: Gas, Bellows volumetry

F/C=C/C(F)(F)F [trans-1,3,3,3-tetrafluoropropene]
Conditions	mass density
310 K, 657 kPa	34.36 kg/m3
310 K, 669 kPa	35.06 kg/m3
310 K, 681 kPa	35.86 kg/m3
310 K, 695 kPa	36.78 kg/m3
320 K, 691 kPa	34.42 kg/m3
320 K, 701 kPa	35.05 kg/m3
320 K, 716 kPa	35.92 kg/m3
320 K, 730 kPa	36.8 kg/m3
320 K, 743 kPa	37.6 kg/m3
320 K, 759 kPa	38.61 kg/m3
320 K, 775 kPa	39.62 kg/m3
320 K, 791 kPa	40.64 kg/m3
320 K, 808 kPa	41.76 kg/m3
320 K, 823 kPa	42.77 kg/m3
320 K, 837 kPa	43.67 kg/m3
320 K, 851 kPa	44.36 kg/m3
320 K, 866 kPa	45.45 kg/m3
320 K, 881 kPa	46.49 kg/m3
320 K, 899 kPa	47.75 kg/m3
320 K, 910 kPa	48.63 kg/m3
330 K, 718 kPa	34.26 kg/m3
330 K, 731 kPa	34.99 kg/m3
330 K, 746 kPa	35.85 kg/m3
330 K, 762 kPa	36.76 kg/m3
330 K, 778 kPa	37.66 kg/m3
330 K, 792 kPa	38.48 kg/m3
330 K, 810 kPa	39.52 kg/m3
330 K, 828 kPa	40.65 kg/m3
330 K, 844 kPa	41.61 kg/m3
330 K, 866 kPa	42.95 kg/m3
330 K, 893 kPa	44.43 kg/m3
330 K, 908 kPa	45.39 kg/m3
330 K, 927 kPa	46.54 kg/m3
330 K, 943 kPa	47.55 kg/m3
330 K, 961 kPa	48.73 kg/m3
330 K, 981 kPa	50.03 kg/m3
330 K, 1001 kPa	51.36 kg/m3
330 K, 1020 kPa	52.67 kg/m3
330 K, 1041 kPa	54.12 kg/m3
330 K, 1063 kPa	55.64 kg/m3
330 K, 1075 kPa	56.44 kg/m3
330 K, 1097 kPa	57.98 kg/m3
330 K, 1113 kPa	59.21 kg/m3
330 K, 1139 kPa	61.03 kg/m3
330 K, 1165 kPa	63.02 kg/m3
340 K, 747 kPa	34.24 kg/m3
340 K, 762 kPa	35.03 kg/m3
340 K, 778 kPa	35.89 kg/m3
340 K, 794 kPa	36.75 kg/m3
340 K, 810 kPa	37.63 kg/m3
340 K, 827 kPa	38.54 kg/m3
340 K, 845 kPa	39.55 kg/m3
340 K, 864 kPa	40.55 kg/m3
340 K, 882 kPa	41.66 kg/m3
340 K, 903 kPa	42.85 kg/m3
340 K, 921 kPa	43.82 kg/m3
340 K, 933 kPa	44.41 kg/m3
340 K, 953 kPa	45.51 kg/m3
340 K, 971 kPa	46.56 kg/m3
340 K, 989 kPa	47.62 kg/m3
340 K, 1008 kPa	48.82 kg/m3
340 K, 1030 kPa	50.12 kg/m3
340 K, 1049 kPa	51.33 kg/m3
340 K, 1069 kPa	52.63 kg/m3
340 K, 1090 kPa	53.99 kg/m3
340 K, 1117 kPa	55.66 kg/m3
340 K, 1134 kPa	56.71 kg/m3
340 K, 1154 kPa	58.04 kg/m3
340 K, 1175 kPa	59.4 kg/m3
340 K, 1196 kPa	60.76 kg/m3
340 K, 1218 kPa	62.25 kg/m3
340 K, 1238 kPa	63.68 kg/m3
340 K, 1262 kPa	65.39 kg/m3
340 K, 1284 kPa	67.01 kg/m3
340 K, 1305 kPa	68.59 kg/m3
340 K, 1308 kPa	68.83 kg/m3
340 K, 1331 kPa	70.6 kg/m3 and 70.59 kg/m3
340 K, 1354 kPa	72.27 kg/m3
340 K, 1356 kPa	72.51 kg/m3
340 K, 1378 kPa	74.19 kg/m3
340 K, 1384 kPa	74.55 kg/m3
340 K, 1398 kPa	75.77 kg/m3
340 K, 1420 kPa	77.51 kg/m3
340 K, 1441 kPa	79.28 kg/m3
340 K, 1465 kPa	81.46 kg/m3
340 K, 1482 kPa	83.02 kg/m3
340 K, 1490 kPa	83.71 kg/m3
350 K, 777 kPa	34.25 kg/m3
350 K, 794 kPa	35.1 kg/m3
350 K, 809 kPa	35.85 kg/m3
350 K, 824 kPa	36.66 kg/m3
350 K, 841 kPa	37.55 kg/m3
350 K, 861 kPa	38.6 kg/m3
350 K, 880 kPa	39.57 kg/m3
350 K, 899 kPa	40.59 kg/m3
350 K, 921 kPa	41.8 kg/m3
350 K, 943 kPa	42.97 kg/m3
350 K, 974 kPa	44.44 kg/m3
350 K, 992 kPa	45.42 kg/m3
350 K, 1009 kPa	46.4 kg/m3
350 K, 1033 kPa	47.69 kg/m3
350 K, 1050 kPa	48.68 kg/m3
350 K, 1073 kPa	49.96 kg/m3
350 K, 1081 kPa	50.42 kg/m3
350 K, 1097 kPa	51.34 kg/m3
350 K, 1118 kPa	52.57 kg/m3
350 K, 1146 kPa	54.28 kg/m3
350 K, 1166 kPa	55.47 kg/m3
350 K, 1184 kPa	56.54 kg/m3
350 K, 1212 kPa	58.14 kg/m3
350 K, 1228 kPa	59.18 kg/m3
350 K, 1253 kPa	60.74 kg/m3
350 K, 1281 kPa	62.46 kg/m3
350 K, 1299 kPa	63.7 kg/m3
350 K, 1325 kPa	65.31 kg/m3
350 K, 1352 kPa	67.13 kg/m3
350 K, 1374 kPa	68.68 kg/m3
350 K, 1376 kPa	68.87 kg/m3
350 K, 1400 kPa	70.45 kg/m3
350 K, 1403 kPa	70.69 kg/m3
350 K, 1422 kPa	72.01 kg/m3
350 K, 1434 kPa	72.82 kg/m3
350 K, 1451 kPa	74.02 kg/m3
350 K, 1460 kPa	74.47 kg/m3
350 K, 1474 kPa	75.65 kg/m3
350 K, 1499 kPa	77.45 kg/m3
350 K, 1526 kPa	79.54 kg/m3
350 K, 1552 kPa	81.57 kg/m3
350 K, 1580 kPa	83.73 kg/m3
350 K, 1611 kPa	86.28 kg/m3
350 K, 1645 kPa	88.62 kg/m3
350 K, 1667 kPa	90.44 kg/m3
350 K, 1692 kPa	92.58 kg/m3
350 K, 1722 kPa	95.16 kg/m3
350 K, 1748 kPa	97.5 kg/m3
350 K, 1773 kPa	99.83 kg/m3
350 K, 1798 kPa	102.24 kg/m3
350 K, 1822 kPa	104.65 kg/m3
350 K, 1850 kPa	107.61 kg/m3
350 K, 1869 kPa	109.92 kg/m3
360 K, 806 kPa	34.26 kg/m3
360 K, 822 kPa	35.02 kg/m3
360 K, 838 kPa	35.83 kg/m3
360 K, 858 kPa	36.81 kg/m3
360 K, 872 kPa	37.5 kg/m3
360 K, 893 kPa	38.54 kg/m3
360 K, 914 kPa	39.59 kg/m3
360 K, 934 kPa	40.62 kg/m3
360 K, 957 kPa	41.79 kg/m3
360 K, 980 kPa	42.97 kg/m3
360 K, 996 kPa	43.76 kg/m3
360 K, 1013 kPa	44.41 kg/m3
360 K, 1032 kPa	45.38 kg/m3
360 K, 1053 kPa	46.47 kg/m3
360 K, 1076 kPa	47.64 kg/m3
360 K, 1093 kPa	48.62 kg/m3
360 K, 1123 kPa	50.21 kg/m3
360 K, 1142 kPa	51.25 kg/m3
360 K, 1164 kPa	52.52 kg/m3
360 K, 1190 kPa	53.97 kg/m3
360 K, 1217 kPa	55.45 kg/m3
360 K, 1246 kPa	56.97 kg/m3
360 K, 1249 kPa	57.15 kg/m3
360 K, 1263 kPa	57.94 kg/m3
360 K, 1285 kPa	59.28 kg/m3
360 K, 1310 kPa	60.71 kg/m3
360 K, 1335 kPa	62.17 kg/m3
360 K, 1359 kPa	63.66 kg/m3
360 K, 1386 kPa	65.23 kg/m3
360 K, 1414 kPa	66.98 kg/m3
360 K, 1438 kPa	68.45 kg/m3
360 K, 1441 kPa	68.77 kg/m3
360 K, 1466 kPa	70.29 kg/m3 and 70.3 kg/m3
360 K, 1493 kPa	72.04 kg/m3
360 K, 1502 kPa	72.6 kg/m3
360 K, 1523 kPa	73.94 kg/m3
360 K, 1535 kPa	74.54 kg/m3
360 K, 1545 kPa	75.43 kg/m3
360 K, 1580 kPa	77.76 kg/m3
360 K, 1607 kPa	79.57 kg/m3
360 K, 1634 kPa	81.53 kg/m3
360 K, 1665 kPa	83.71 kg/m3
360 K, 1695 kPa	85.89 kg/m3
360 K, 1725 kPa	87.95 kg/m3
360 K, 1737 kPa	88.54 kg/m3
360 K, 1760 kPa	90.28 kg/m3
360 K, 1787 kPa	92.36 kg/m3
360 K, 1815 kPa	94.55 kg/m3
360 K, 1850 kPa	97.28 kg/m3
360 K, 1886 kPa	100.24 kg/m3
360 K, 1926 kPa	103.58 kg/m3
360 K, 1936 kPa	104.54 kg/m3
360 K, 1964 kPa	107.1 kg/m3
360 K, 1999 kPa	110.25 kg/m3
360 K, 2157 kPa	125.99 kg/m3
360 K, 2180 kPa	128.5 kg/m3
360 K, 2212 kPa	132.17 kg/m3
360 K, 2224 kPa	133.7 kg/m3
360 K, 2247 kPa	136.47 kg/m3
360 K, 2279 kPa	140.52 kg/m3
360 K, 2287 kPa	141.76 kg/m3
360 K, 2300 kPa	143.52 kg/m3
